Data on 27 compounds can be found in US8962671B2, “Amino-substituted 3-heteroaroylamino-propionic acid derivatives and their use as pharmaceuticals” (Sanofi, priority 2011, dated 2015).

pIC50: −log10 of the molar value.

The experiment addresses T1, Recombinant human cathepsin A (Homo sapiens, UniProt P10619).
T1 construct: Recombinant human cathepsin A (residues 29-480, with a C-terminal 10-His tag); 10-His (C); purchased R&D Systems 1049-SE
T1 sequence (P10619 29-326 limits assumed): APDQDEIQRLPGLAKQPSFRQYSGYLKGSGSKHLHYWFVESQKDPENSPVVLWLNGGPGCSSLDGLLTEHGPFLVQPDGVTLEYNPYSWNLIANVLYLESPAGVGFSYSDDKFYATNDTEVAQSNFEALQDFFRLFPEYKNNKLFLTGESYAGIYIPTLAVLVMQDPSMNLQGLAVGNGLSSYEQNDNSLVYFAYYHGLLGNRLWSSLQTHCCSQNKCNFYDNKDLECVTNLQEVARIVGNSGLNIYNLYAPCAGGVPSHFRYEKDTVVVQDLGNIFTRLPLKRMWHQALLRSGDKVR
T1 sequence (P10619 327-480 limits assumed): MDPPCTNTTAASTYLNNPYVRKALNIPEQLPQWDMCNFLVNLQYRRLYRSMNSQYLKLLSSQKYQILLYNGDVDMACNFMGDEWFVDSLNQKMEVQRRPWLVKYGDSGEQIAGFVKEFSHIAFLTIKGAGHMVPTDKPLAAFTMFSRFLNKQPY
The experiment can be described thus: Cathepsin A inhibitory activity. Type of experiment: biochemical. The settings on record: activated recombinant human cathepsin A 833 ng/ml, Bodipy FL-labeled bradykinin 2 μM, pH 5.5, 15 min room temperature. The protocol: a) Cathepsin a Inhibitory Activity
Recombinant human cathepsin A (residues 29-480, with a C-terminal 10-His tag; R&D Systems, #1049-SE) was proteolytically activated with recombinant human cathepsin L (R&D Systems, #952-CY). Briefly, cathepsin A was incubated at 10 μg/ml with cathepsin L at 1 μg/ml in activation buffer (25 mM 2-(morpholin-4-yl)-ethanesulfonic acid (MES), pH 6.0, containing 5 mM dithiothreitol (DTT)) for 15 min at 37° C. Cathepsin L activity was then stopped by the addition of the cysteine protease inhibitor E-64 (N-(trans-epoxysuccinyl)-L-leucine-4-guanidinobutylamide; Sigma-Aldrich, #E3132; dissolved in activation buffer/DMSO) to a final concentration of 10 μM.
The activated cathepsin A was diluted in assay buffer (25 mM MES, pH 5.5, containing 5 mM DTT) and mixed with the test compound (dissolved in assay buffer containing (v/v) 3% DMSO) or, in the control experiments, with the vehicle in a multiple assay plate. After incubation for 15 min at room temperature, as substrate then bradykinin carrying an N-Terminal®Bodipy FL (4,4-difluoro-5,7-dimethyl-4-bora-3a,4a-diaza-s-indacene-3-propionyl) label (JPT Peptide Technologies GmbH; dissolved in assay buffer) was added to the mixture. The final concentration of cathepsin A was 833 ng/ml and the final concentration of labeled bradykinin 2 μM. After incubation for 15 min at room temperature the reaction was stopped by the addition of stop buffer (130 mM 2-(4-(2-hydroxy-ethyl)-piperazin-1-yl)-ethanesulfonic acid, pH 7.4, containing (v/v) 0.013%®Triton X-100, 0.13% Coating Reagent 3 (Caliper Life Sciences), 6.5% DMSO and 20 μM ebelactone B (Sigma, #E0886)).
Uncleaved substrate and product were then separated by a microfluidic capillary electrophoresis on a LabChip® 3000 Drug Discovery System (12-Sipper-Chip; Caliper Life Sciences) and quantified by determination of the respective peak areas. Substrate turnover was calculated by dividing product peak area by the sum of substrate and product peak areas, and the enzyme activity and the inhibitory effect of the test compound thus quantified. From the percentage of inhibition of cathepsin A activity observed with the test compound at several concentrations, the inhibitory concentration IC50, i.e. the concentration which effects 50% inhibition of enzyme activity was, calculated.
With `Cc1ccccc1[C@H](CC(=O)O)NC(=O)c1cc(NC[C@H](O)C(C)(C)C)n(-c2ccccc2)n1` (single isomer, unassigned) [Example 59], the pIC50 was 7.60. For `Cc1ccccc1[C@H](CC(=O)O)NC(=O)c1cc(NC[C@@H](O)C(C)(C)C)n(-c2ccccc2)n1` (single isomer, unassigned) [Example 60], the pIC50 is 7.95.

In the case of `Cc1ccccc1[C@H](CC(=O)O)NC(=O)c1cc(N)n(-c2ccccc2)n1` [Example 1, (S)-3-[(5-Amino-1-phenyl-1H-pyrazole-3-carbonyl)-amino]-3-o-tolyl-propionic acid], the pIC50 is 7.60.

With `Nc1cc(C(=O)NC(CC(=O)O)c2ccc(-c3ccc(F)cc3)cc2)nn1-c1ccccc1` (stereo not drawn) [Example 2, 3-[(5-Amino-1-phenyl-1H-pyrazole-3-carbonyl)-amino]-3-(4′-fluoro-biphenyl-4-yl)-propionic acid], the negative logarithm of the IC50 (pIC50) was 7.27. To `Cc1ccccc1[C@H](CC(=O)O)NC(=O)c1cc(N)n(-c2ccccc2F)n1` [Example 3, (S)-3-{[5-Amino-1-(2-fluoro-phenyl)-1H-pyrazole-3-carbonyl]-amino}-3-o-tolyl-propionic acid] belongs 7.86. Turning to `Nc1cc(C(=O)NC(CC(=O)O)c2ccc(-c3ccc(F)cc3)cc2)nn1-c1ccccc1F` (stereo not drawn) [Example 4, 3-{[5-Amino-1-(2-fluoro-phenyl)-1H-pyrazole-3-carbonyl]-amino}-3-(4′-fluoro-biphenyl-4-yl)-propionic acid], the pIC50 was 7.73.

As to `Cc1ccccc1[C@H](CC(=O)O)NC(=O)c1nn(-c2ccccc2F)c(N)c1C#N` [Example 5, (S)-3-{[5-Amino-4-cyano-1-(2-fluoro-phenyl)-1H-pyrazole-3-carbonyl]-amino}-3-o-tolyl-propionic acid], the pIC50 is 7.73. To `Cc1ccccc1[C@H](CC(=O)O)NC(=O)c1cc(N2CCCC2)n(-c2ccccc2)n1` [Example 6, (S)-3-[(1-Phenyl-5-pyrrolidin-1-yl-1H-pyrazole-3-carbonyl)-amino]-3-o-tolyl-propionic acid] belongs 7.81; to `Nc1cc(C(=O)NC(CC(=O)O)c2ccc(-c3ccccn3)cc2)nn1-c1ccccc1F` (stereo not drawn) [Example 7, 3-{[5-Amino-1-(2-fluoro-phenyl)-1H-pyrazole-3-carbonyl]-amino}-3-(4-pyridin-2-yl-phenyl)-propionic acid], 7.69.

In the case of `Nc1cc(C(=O)N[C@@H](CC(=O)O)c2cccc(Cl)c2Cl)nn1-c1ccccc1F` [Example 8, (S)-3-{[5-Amino-1-(2-fluoro-phenyl)-1H-pyrazole-3-carbonyl]-amino}-3-(2,3-dichloro-phenyl)-propionic acid], the pIC50 was 7.63. For `Nc1cc(C(=O)NC(CC(=O)O)c2cc(Cl)ccc2Cl)nn1-c1ccccc1F` (stereo not drawn) [Example 9, 3-{[5-Amino-1-(2-fluoro-phenyl)-1H-pyrazole-3-carbonyl]-amino}-3-(2,5-dichloro-phenyl)-propionic acid] the value was 6.70; for `Cc1ccccc1[C@H](CC(=O)O)NC(=O)c1cc(NC(=O)Nc2ccccc2)n(-c2ccccc2)n1` [Example 10, (S)-3-{[1-Phenyl-5-(3-phenyl-ureido)-1H-pyrazole-3-carbonyl]-amino}-3-o-tolyl-propionic acid], 7.85. For `Cc1ccccc1[C@H](CC(=O)O)NC(=O)c1cc(NS(C)(=O)=O)n(-c2ccccc2)n1` [Example 11, (S)-3-[(5-Methanesulfonylamino-1-phenyl-1H-pyrazole-3-carbonyl)-amino]-3-o-tolyl-propionic acid] the value was 7.60; for `Cc1ccccc1[C@H](CC(=O)O)NC(=O)c1cc(N2CCCS2(=O)=O)n(-c2ccccc2F)n1` [Example 12, (S)-3-{[5-(1,1-Dioxo-1lambda6-isothiazolidin-2-yl)-1-(2-fluoro-phenyl)-1H-pyrazole-3-carbonyl]-amino}-3-o-tolyl-propionic acid], 7.87. To `Cc1ccccc1[C@H](CC(=O)O)NC(=O)c1cc(N2CCCC2)n(-c2ccccc2F)n1` [Example 13, (S)-3-{[1-(2-Fluoro-phenyl)-5-pyrrolidin-1-yl-1H-pyrazole-3-carbonyl]-amino}-3-o-tolyl-propionic acid] belongs 8.08; to `Cc1ccccc1[C@H](CC(=O)O)NC(=O)c1cc(N2CCCC2=O)n(-c2ccccc2F)n1` [Example 14, (S)-3-{[1-(2-Fluoro-phenyl)-5-(2-oxo-pyrrolidin-1-yl)-1H-pyrazole-3-carbonyl]-amino}-3-o-tolyl-propionic acid], 7.59; to `Cc1ccccc1[C@H](CC(=O)O)NC(=O)c1cc(N2CCCC2=O)n(-c2ccccc2)n1` [Example 15, (S)-3-{[5-(2-Oxo-pyrrolidin-1-yl)-1-phenyl-1H-pyrazole-3-carbonyl]-amino}-3-o-tolyl-propionic acid], 7.59. In the case of `Cc1ccccc1[C@H](CC(=O)O)NC(=O)c1cc(N2CCCS2(=O)=O)n(-c2ccccc2)n1` [Example 16, (S)-3-{[5-(1,1-Dioxo-1lambda6-isothiazolidin-2-yl)-1-phenyl-1H-pyrazole-3-carbonyl]-amino}-3-o-tolyl-propionic acid], the pIC50 was 7.75. To `Cc1ccccc1[C@H](CC(=O)O)NC(=O)c1cc(N2CCCCC2=O)n(-c2ccccc2)n1` [Example 17, (S)-3-{[5-(2-Oxo-piperidin-1-yl)-1-phenyl-1H-pyrazole-3-carbonyl]-amino}-3-o-tolyl-propionic acid] belongs 7.19. Regarding `Cc1ccccc1[C@H](CC(=O)O)NC(=O)c1cc(N2CCCCC2=O)n(-c2ccccc2F)n1` [Example 18, (S)-3-{[1-(2-Fluoro-phenyl)-5-(2-oxo-piperidin-1-yl)-1H-pyrazole-3-carbonyl]-amino}-3-o-tolyl-propionic acid], the pIC50 is 7.34. For `Cc1ccccc1[C@H](CC(=O)O)NC(=O)c1cc(Nc2ccccn2)n(-c2ccccc2)n1` [Example 19, (S)-3-{[1-Phenyl-5-(pyridin-2-ylamino)-1H-pyrazole-3-carbonyl]-amino}-3-o-tolyl-propionic acid] the value was 7.30; for `O=C(O)CC(NC(=O)c1cc2[nH]c3ccccc3n2n1)c1ccc(F)c(F)c1` (stereo not drawn) [Example 20, 3-[(4H-Benzo[4,5]imidazo[1,2-b]pyrazole-2-carbonyl)-amino]-3-(3,4-difluoro-phenyl)-propionic acid], 5.48; for `N#Cc1ccc(C(CC(=O)O)NC(=O)c2cc3[nH]c4ccccc4n3n2)cc1` (stereo not drawn) [Example 21, 3-[(4H-Benzo[4,5]imidazo[1,2-b]pyrazole-2-carbonyl)-amino]-3-(4-cyano-phenyl)-propionic acid], 5.62.

Regarding `O=C(O)CC(NC(=O)c1cc2[nH]c3ccccc3n2n1)c1cccc2c1OCO2` (stereo not drawn) [Example 22, 3-Benzo[1,3]dioxol-4-yl-3-[(4H-benzo[4,5]imidazo[1,2-b]pyrazole-2-carbonyl)-amino]-propionic acid], the pIC50 was 5.95. To `O=C(O)CC(NC(=O)c1cc2[nH]c3ccccc3n2n1)c1cccc(F)c1` (stereo not drawn) [Example 23, 3-[(4H-Benzo[4,5]imidazo[1,2-b]pyrazole-2-carbonyl)-amino]-3-(3-fluoro-phenyl)-propionic acid] belongs 5.51. For `O=C(O)CC(NC(=O)c1cc2[nH]c3ccccc3n2n1)c1ccccc1F` (stereo not drawn) [Example 24, 3-[(4H-Benzo[4,5]imidazo[1,2-b]pyrazole-2-carbonyl)-amino]-3-(2-fluoro-phenyl)-propionic acid] the value was 5.76.

Regarding `O=C(O)CC(NC(=O)c1cc2[nH]c3ccccc3n2n1)c1cccc(Oc2ccccc2)c1` (stereo not drawn) [Example 26, 3-[(4H-Benzo[4,5]imidazo[1,2-b]pyrazole-2-carbonyl)-amino]-3-(3-phenoxy-phenyl)-propionic acid], the pIC50 is 5.58.
